SMILES strings stand for the structures.

The data set in a line: in vitro. The conditions noted are these: human, hela cells, % viability.
Turning to `C#CCN(C)CC[C@@H]1CC[C@H](O)[C@@H](C(=O)NC(C)C)O1` [CBK288718], the viability (commonly a read-out of living cells in per cent, often relative to untreated cells) at 28.5 h, 10 µM is 109%.

As for `CC(C)NC(=O)[C@H]1O[C@H](CCN2CCN(c3ccccc3)CC2)CC[C@@H]1O` [CBK288719], the viability at 28.5 h, 10 µM worked out at 123%.

Consider `CC(C)NC(=O)[C@H]1O[C@H](CCN2CCN(c3ccc(F)cc3)CC2)CC[C@@H]1O` [CBK288721], for which the viability at 28.5 h, 10 µM was 98.8%.

`CC(C)NC(=O)[C@H]1O[C@H](CCN2CCN(c3ccccn3)CC2)CC[C@@H]1O` [CBK288722]: the viability at 28.5 h, 10 µM worked out at 90.7%.

For the molecule `C#CCN(C)CC[C@@H]1CC[C@H](O)[C@@H](C(=O)N2CCOCC2)O1` [CBK288723], the viability at 28.5 h, 10 µM came out at 108%.

For the molecule `O=C(Nc1ccccc1)[C@H]1O[C@H](CCN2CCN(c3ccccn3)CC2)CC[C@@H]1O` [CBK288726], the viability at 28.5 h, 10 µM came out at 87.9%.

In the case of `C#CCNC(=O)[C@H]1O[C@H](CCN2CCCCC2)CC[C@@H]1O` [CBK288728], the viability at 28.5 h, 10 µM turned out to be 101%.

As for `CC(C)NC(=O)[C@H]1CN2CCC1C[C@@H]2Cn1cc(-c2cccc(O)c2)nn1` (stereo partly shown) [CBK288731], the viability at 28.5 h, 10 µM is 91.7%.

As to `CC(C)NC(=O)[C@H]1CN2CCC1C[C@@H]2Cn1cc(C2(O)CCCCC2)nn1` (stereo partly shown) [CBK288732], the viability at 28.5 h, 10 µM came to 99.3%.

Turning to `COCc1cn(C[C@H]2CC3CCN2C[C@@H]3C(=O)NC(C)C)nn1` (stereo partly shown) [CBK288733], the viability at 28.5 h, 10 µM was 89.2%.

Turning to `O=C([C@H]1CN2CCC1C[C@@H]2Cn1cc(COc2ccccc2)nn1)N1CCOCC1` (stereo partly shown) [CBK288734], the viability at 28.5 h, 10 µM was determined as 113%.

As to `CC(C)(C)c1cn(C[C@H]2CC3CCN2C[C@@H]3C(=O)N2CCOCC2)nn1` (stereo partly shown) [CBK288735], the viability at 28.5 h, 10 µM was found to be 87.8%.

For the molecule `Cn1nc(C2CCCC2)cc1[C@H]1CN2CC[C@H]1C[C@@H]2CNS(C)(=O)=O` [CBK288742], the viability at 28.5 h, 10 µM came out at 91.5%.

As for `CC[C@H]1C[N@@]2CC[C@H]1C[C@@H]2CNS(=O)(=O)c1cccc(C#N)c1` [CBK288746], the viability at 28.5 h, 10 µM came out at 96.9%.

Turning to `C=C[C@H]1C[N@@]2CC[C@H]1C[C@@H]2CNS(=O)(=O)c1ccc(NC(C)=O)cc1` [CBK288749], the viability at 28.5 h, 10 µM turned out to be 98.9%.

On to `C#C[C@H]1C[N@@]2CC[C@H]1C[C@@H]2CNS(=O)(=O)c1ccc(NC(C)=O)cc1` [CBK288752], for which the viability at 28.5 h, 10 µM stood at 103%.

As for `C#C[C@H]1C[N@@]2CC[C@H]1C[C@@H]2CNC(=O)Nc1cccc(C#N)c1` [CBK288754], the viability at 28.5 h, 10 µM was found to be 97.2%.

Regarding `COc1ccc(S(=O)(=O)NC[C@H]2C[C@@H]3CC[N@]2C[C@@H]3CN2CCOCC2)cc1` [CBK288761], the viability at 28.5 h, 10 µM amounted to 87.7%.

Take `N#Cc1cccc(NC(=O)NC[C@H]2C[C@@H]3CC[N@]2C[C@@H]3CN2CCOCC2)c1` [CBK288763]: the viability at 28.5 h, 10 µM worked out at 108%.

Consider `N#Cc1cccc(NC(=O)NC[C@H]2C[C@@H]3CC[N@]2C[C@@H]3CN2CCCCC2)c1` [CBK288765], for which the viability at 28.5 h, 10 µM came out at 99.5%.

With `CC(=O)c1ccc(NC(=O)NC[C@H]2C[C@@H]3CC[N@]2C[C@@H]3CN2CCCCC2)cc1` [CBK288766], the viability at 28.5 h, 10 µM was found to be 92.3%.

As for `CC[C@H]1CN(C(=O)c2cccnc2)CC[C@H]1CC(=O)N1CCC(C(N)=O)CC1` [CBK288772], the viability at 28.5 h, 10 µM was 104%.

In the case of `CC[C@H]1CN(C(=O)c2cccnc2)CC[C@H]1CC(=O)NCc1cccs1` [CBK288773], the viability at 28.5 h, 10 µM stood at 89.7%.

With `CC[C@H]1CN(C(=O)NC(C)C)CC[C@H]1CC(=O)NCc1ccc2c(c1)OCO2` [CBK288775], the viability at 28.5 h, 10 µM came to 97.9%.

Take `CC[C@H]1CN(C(=O)Nc2cccc(OC)c2)CC[C@H]1CC(=O)O` [CBK288778]: the viability at 28.5 h, 10 µM turned out to be 110%.

In the case of `O=C(O)C[C@@H]1CCN(C(=O)Nc2ccccc2)C[C@@H]1CCN1CCCCC1` [CBK288782], the viability at 28.5 h, 10 µM was determined as 110%.

As to `CC(=O)NCCN1CC[C@H]2CN(C(=O)COc3ccccc3)CC[C@H]2CC1=O` [CBK288783], the viability at 28.5 h, 10 µM amounted to 84.6%.

Turning to `CC(=O)NCCN1CC[C@H]2CN(C(=O)c3cc(C)on3)CC[C@H]2CC1=O` [CBK288785], the viability at 28.5 h, 10 µM was 103%.

The values above are taken from PMC12040169 (PLOS Biology, 2025).
